Test results reported in article doi:10.1101/2023.11.24.568596v1 (biorxiv, 2023).

Assays:
Settings in all cases: binder
BMPR2 = target: T1, BMPR2 (Homo sapiens, UniProt Q13873)
T1 sequence (Q13873 1-1038): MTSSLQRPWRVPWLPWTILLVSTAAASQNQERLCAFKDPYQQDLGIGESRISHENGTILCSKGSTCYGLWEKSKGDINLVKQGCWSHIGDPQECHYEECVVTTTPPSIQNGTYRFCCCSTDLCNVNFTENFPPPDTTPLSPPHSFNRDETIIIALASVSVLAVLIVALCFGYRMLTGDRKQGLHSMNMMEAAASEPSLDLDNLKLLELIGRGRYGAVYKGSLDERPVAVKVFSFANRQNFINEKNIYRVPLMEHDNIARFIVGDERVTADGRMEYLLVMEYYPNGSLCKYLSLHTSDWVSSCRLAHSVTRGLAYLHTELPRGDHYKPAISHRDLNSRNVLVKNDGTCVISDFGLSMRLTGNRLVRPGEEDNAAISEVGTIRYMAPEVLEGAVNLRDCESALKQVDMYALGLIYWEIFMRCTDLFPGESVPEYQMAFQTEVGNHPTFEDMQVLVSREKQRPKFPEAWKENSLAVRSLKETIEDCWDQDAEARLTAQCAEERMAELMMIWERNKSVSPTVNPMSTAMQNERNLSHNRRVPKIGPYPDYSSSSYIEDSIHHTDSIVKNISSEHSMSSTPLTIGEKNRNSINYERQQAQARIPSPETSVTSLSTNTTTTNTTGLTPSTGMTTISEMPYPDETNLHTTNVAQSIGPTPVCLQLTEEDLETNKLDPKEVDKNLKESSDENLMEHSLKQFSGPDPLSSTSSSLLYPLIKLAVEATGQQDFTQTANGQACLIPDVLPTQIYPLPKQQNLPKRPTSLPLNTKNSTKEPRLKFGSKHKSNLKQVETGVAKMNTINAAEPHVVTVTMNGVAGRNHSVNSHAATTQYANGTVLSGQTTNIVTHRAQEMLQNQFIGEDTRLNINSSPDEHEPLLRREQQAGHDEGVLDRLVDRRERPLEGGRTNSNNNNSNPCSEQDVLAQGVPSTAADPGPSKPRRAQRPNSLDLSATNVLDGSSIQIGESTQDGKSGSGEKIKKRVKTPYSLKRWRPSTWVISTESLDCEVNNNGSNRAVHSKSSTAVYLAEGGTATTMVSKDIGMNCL

DYRK2 = target: T2, DYRK2 (Homo sapiens, UniProt Q92630)
T2 sequence (Q92630 1-601): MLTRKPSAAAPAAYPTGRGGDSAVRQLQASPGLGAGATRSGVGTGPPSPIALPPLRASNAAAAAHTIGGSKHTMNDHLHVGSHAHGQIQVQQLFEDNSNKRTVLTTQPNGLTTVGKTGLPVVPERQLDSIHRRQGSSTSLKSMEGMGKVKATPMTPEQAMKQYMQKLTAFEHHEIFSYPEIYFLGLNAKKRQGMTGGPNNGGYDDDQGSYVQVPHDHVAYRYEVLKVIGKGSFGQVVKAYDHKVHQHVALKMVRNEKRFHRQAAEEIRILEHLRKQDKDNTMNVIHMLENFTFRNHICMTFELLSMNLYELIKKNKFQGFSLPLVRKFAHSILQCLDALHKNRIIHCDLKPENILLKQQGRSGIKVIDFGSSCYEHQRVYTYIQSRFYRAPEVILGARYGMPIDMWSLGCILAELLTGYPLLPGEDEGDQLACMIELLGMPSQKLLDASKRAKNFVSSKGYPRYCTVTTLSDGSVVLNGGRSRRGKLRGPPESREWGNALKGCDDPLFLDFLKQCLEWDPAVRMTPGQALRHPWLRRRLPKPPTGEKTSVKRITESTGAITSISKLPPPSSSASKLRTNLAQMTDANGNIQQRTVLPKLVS

FES = FES (Homo sapiens, UniProt P07332)
FGFR1 = FGFR1 (Homo sapiens, UniProt P11362)
MAP2K7 = target: T3, MAP2K7 (Homo sapiens, UniProt O14733)
T3 sequence (O14733 1-419): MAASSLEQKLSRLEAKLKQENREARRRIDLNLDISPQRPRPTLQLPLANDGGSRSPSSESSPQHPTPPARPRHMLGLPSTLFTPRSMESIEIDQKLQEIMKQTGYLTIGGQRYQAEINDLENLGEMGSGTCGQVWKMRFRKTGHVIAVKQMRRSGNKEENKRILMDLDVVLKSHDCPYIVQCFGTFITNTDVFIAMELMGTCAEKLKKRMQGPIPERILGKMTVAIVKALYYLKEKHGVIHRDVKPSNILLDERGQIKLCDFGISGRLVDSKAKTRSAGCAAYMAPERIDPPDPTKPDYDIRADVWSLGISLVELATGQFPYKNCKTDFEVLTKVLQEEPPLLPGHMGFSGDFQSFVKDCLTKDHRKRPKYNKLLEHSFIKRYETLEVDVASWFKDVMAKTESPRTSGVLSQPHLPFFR

PHKG2 = target: T4, PHKG2 (Homo sapiens, UniProt P15735)
T4 sequence (P15735 1-406): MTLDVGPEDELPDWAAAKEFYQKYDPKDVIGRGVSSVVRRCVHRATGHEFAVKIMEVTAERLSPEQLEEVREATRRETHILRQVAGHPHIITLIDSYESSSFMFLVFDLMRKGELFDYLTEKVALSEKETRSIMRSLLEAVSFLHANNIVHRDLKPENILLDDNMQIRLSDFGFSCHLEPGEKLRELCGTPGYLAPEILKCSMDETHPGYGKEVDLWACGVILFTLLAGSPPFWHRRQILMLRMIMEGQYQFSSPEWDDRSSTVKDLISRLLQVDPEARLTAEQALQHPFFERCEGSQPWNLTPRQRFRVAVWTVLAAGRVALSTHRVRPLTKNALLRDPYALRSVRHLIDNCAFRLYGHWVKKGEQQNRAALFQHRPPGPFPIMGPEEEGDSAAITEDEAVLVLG

Chain of FES (P07332 whole entry): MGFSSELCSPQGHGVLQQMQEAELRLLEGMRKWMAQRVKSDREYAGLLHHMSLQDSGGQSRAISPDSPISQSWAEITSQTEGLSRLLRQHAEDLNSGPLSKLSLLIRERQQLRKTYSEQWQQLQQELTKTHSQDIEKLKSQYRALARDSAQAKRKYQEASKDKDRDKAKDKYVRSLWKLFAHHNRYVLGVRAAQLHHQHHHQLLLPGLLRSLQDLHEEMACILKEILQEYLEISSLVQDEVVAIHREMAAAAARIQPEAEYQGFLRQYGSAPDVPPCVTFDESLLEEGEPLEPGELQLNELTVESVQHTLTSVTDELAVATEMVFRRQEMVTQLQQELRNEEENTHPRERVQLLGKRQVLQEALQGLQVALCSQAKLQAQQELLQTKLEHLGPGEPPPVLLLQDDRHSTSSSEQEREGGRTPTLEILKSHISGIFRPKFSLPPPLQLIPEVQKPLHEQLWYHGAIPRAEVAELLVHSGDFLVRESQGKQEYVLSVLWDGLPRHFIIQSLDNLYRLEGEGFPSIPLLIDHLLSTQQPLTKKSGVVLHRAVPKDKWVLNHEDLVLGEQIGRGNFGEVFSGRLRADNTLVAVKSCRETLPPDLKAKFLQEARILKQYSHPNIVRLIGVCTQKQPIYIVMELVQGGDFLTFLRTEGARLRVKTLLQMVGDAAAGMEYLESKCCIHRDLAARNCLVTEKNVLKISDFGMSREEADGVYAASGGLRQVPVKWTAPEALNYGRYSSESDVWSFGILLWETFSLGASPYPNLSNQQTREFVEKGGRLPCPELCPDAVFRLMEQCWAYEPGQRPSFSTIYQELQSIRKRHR
Chain of FGFR1 (P11362 whole entry): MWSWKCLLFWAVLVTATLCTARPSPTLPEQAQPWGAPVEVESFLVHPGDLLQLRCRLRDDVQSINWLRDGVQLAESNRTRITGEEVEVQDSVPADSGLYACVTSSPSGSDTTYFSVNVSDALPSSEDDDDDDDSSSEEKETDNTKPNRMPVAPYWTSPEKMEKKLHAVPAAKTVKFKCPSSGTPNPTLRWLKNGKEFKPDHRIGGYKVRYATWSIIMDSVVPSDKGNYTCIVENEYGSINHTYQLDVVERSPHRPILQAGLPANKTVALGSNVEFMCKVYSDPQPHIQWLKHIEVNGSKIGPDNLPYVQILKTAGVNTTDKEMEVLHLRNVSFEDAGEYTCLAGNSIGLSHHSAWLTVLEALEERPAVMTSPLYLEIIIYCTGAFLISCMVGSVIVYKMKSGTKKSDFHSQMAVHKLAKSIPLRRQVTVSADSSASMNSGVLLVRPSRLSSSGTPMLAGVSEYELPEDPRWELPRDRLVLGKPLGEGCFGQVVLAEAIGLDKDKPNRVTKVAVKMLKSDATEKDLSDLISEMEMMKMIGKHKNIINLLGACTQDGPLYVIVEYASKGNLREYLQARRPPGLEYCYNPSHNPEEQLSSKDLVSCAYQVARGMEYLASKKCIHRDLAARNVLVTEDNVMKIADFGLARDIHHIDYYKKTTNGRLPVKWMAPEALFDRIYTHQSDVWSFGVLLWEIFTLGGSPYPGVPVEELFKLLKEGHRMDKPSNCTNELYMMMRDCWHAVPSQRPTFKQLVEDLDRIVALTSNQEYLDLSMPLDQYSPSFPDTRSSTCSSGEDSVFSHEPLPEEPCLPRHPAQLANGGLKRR

With `Cc1cccc(-c2ccc(-c3cc4cnc(Nc5ccc(F)c(CO)c5)nc4n(CCCCN)c3=O)c(Cl)c2)n1` [compound 33, 8-(4-Aminobutyl)-6-(2-chloro-4-(6-methylpyridin-2-yl)phenyl)-2-((4-fluoro-3-(hydroxymethyl)phenyl)amino)pyrido[2,3-d]pyrimidin-7(8H)-one] the “dTm 33” value (BMPR2) was -0.1 °C, the “dTm 33” value (DYRK2) was -1.0 °C and the “dTm 33” value (FES) was 8.9 °C. For the same compound, the “dTm 33” value (FGFR1) was 2.0 °C, the “dTm 33” value (MAP2K7) was 7.7 °C and the “dTm 33” value (PHKG2) was 6.2 °C.
`COc1ccc(O)c(Nc2ncc3cc(-c4ccc(-c5cccc(C)n5)cc4Cl)c(=O)n(CCCCN)c3n2)c1` [compound 34, 8-(4-Aminobutyl)-6-(2-chloro-4-(6-methylpyridin-2-yl)phenyl)-2-((2-hydroxy-5-methoxy-phenyl)amino)pyrido[2,3-d]pyrimidin-7(8H)-one] was tested, and the “dTm 34” value (BMPR2) was 0.0 °C, the “dTm 34” value (DYRK2) was 0.0 °C and the “dTm 34” value (FES) was 7.6 °C. For the same compound, the “dTm 34” value (FGFR1) was 0.9 °C, the “dTm 34” value (MAP2K7) was 1.3 °C and the “dTm 34” value (PHKG2) was 3.5 °C.
For `COc1cc(N2CCOCC2)ccc1Nc1ncc2cc(-c3ccc(-c4cccc(C)n4)cc3Cl)c(=O)n(CCCCN)c2n1` [compound 35, 8-(4-Aminobutyl)-6-(2-chloro-4-(6-methylpyridin-2-yl)phenyl)-2-((2-methoxy-4-morpholino-phenyl)amino)pyrido[2,3-d]pyrimidin-7(8H)-one], the “dTm 35” value (BMPR2) was -1.0 °C, the “dTm 35” value (DYRK2) was -0.6 °C and the “dTm 35” value (FES) was 8.3 °C. For the same compound, the “dTm 35” value (FGFR1) was 0.4 °C, the “dTm 35” value (MAP2K7) was 2.0 °C and the “dTm 35” value (PHKG2) was 8.8 °C.
In the case of `COc1cc(N2CCN(C)CC2)ccc1Nc1ncc2cc(-c3ccc(-c4cccc(C)n4)cc3Cl)c(=O)n(CCCCN)c2n1` [compound 36, 8-(4-Aminobutyl)-6-(2-chloro-4-(6-methylpyridin-2-yl)phenyl)-2-((2-methoxy-4-(4-methylpiperazin-1-yl)phenyl)amino)pyrido[2,3-d]pyrimidin-7(8H)-one], the “dTm 36” value (BMPR2) is reported as -0.2 °C, the “dTm 36” value (DYRK2) is reported as -0.4 °C and the “dTm 36” value (FES) is reported as 9.0 °C. The “dTm 36” value (FGFR1) was 2.0 °C, the “dTm 36” value (MAP2K7) was 0.0 °C and the “dTm 36” value (PHKG2) was 8.0 °C.
